Results published in ChEMBL document CHEMBL1201862, “PubChem BioAssay data set” (2004).
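These data come from cells grown in 96-well plates and exposed to compound for 48 hours at five concentrations. Here, GI50 denotes the concentration required for 50% inhibition of growth.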 Calls of active or inactive are those of the source. Rule as the data show it: active = GI50 up to about 1.1 µM and inactive = higher.

How the values were obtained:
Assay in all cases: DTP human tumour cell line panel, 48 h
[1] = system: M19-MEL
[2] = system: DMS-114
[3] = system: RXF 631
[4] = system: XF498
[5] = system: KM-20L2
[6] = system: HOP-18
[7] = system: DMS-273
[8] = system: BT-549
[9] = system: Hs-578T

SMILES | GI50 [1] | GI50 [2] | GI50 [3] | GI50 [4] | GI50 [5] | GI50 [6] | GI50 [7] | GI50 [8] | GI50 [9]
CCN1CCN(c2ccc(Nc3ccnc4ccc5nn(C)nc5c34)cc2)CC1 | 16.1 µM (inactive) | 10.1 µM (inactive) | 10 µM (inactive) | 13.9 µM (inactive) | 8.36 µM (inactive) | – | – | – | –
C/C(=N\NC(=S)NC(CCC(=O)O)C(=O)O)c1cnccn1 (centres undefined) | > 100 µM (inactive) | > 100 µM (inactive) | > 100 µM (inactive) | > 100 µM (inactive) | > 100 µM (inactive) | > 100 µM (inactive) | – | – | –
Cc1ccc(S(=O)(=O)N/N=C(\CCN2CCCC2)CC(c2ccccc2)c2c(O)c3ccccc3oc2=O)cc1 (centres undefined) | > 100 µM (inactive) | – | > 100 µM (inactive) | > 100 µM (inactive) | > 100 µM (inactive) | > 100 µM (inactive) | – | – | –
C=CCN1C(=O)C/C(=C2/CCC(=O)N2CC=C)C1=O | > 100 µM (inactive) | > 100 µM (inactive) | > 100 µM (inactive) | – | > 100 µM (inactive) | > 100 µM (inactive) | > 100 µM (inactive) | – | –
CCOC(=O)/C(C(=O)c1ccccc1)=C1\N[C@H](C(=O)OCC)CS1 | – | – | > 100 µM (inactive) | > 100 µM (inactive) | > 100 µM (inactive) | 16.3 µM (inactive) | – | – | –
O=C1C(=O)N(c2cccc(C(F)(F)F)c2)C(=O)C(=O)C1c1nc2ccccc2s1 | 45.1 µM (inactive) | 45.8 µM (inactive) | 88.1 µM (inactive) | > 100 µM (inactive) | > 100 µM (inactive) | 63.7 µM (inactive) | > 100 µM (inactive) | > 100 µM (inactive) | > 100 µM (inactive)
CC1=C(C(=O)O)N2C(=O)[C@@H](NC(=O)C(c3ccccc3)N3CSC(=S)N(C(C)C)C3)C2SC1 (some centres undefined) | > 100 µM (inactive) | – | – | > 100 µM (inactive) | > 100 µM (inactive) | > 100 µM (inactive) | > 100 µM (inactive) | – | –
O=C1C2=C(SCCS2)C(=O)c2ccccc21 | 0.236 µM (active) | 0.871 µM (active) | 1.82 µM (inactive) | 1.64 µM (inactive) | 1.94 µM (inactive) | – | 1.81 µM (inactive) | – | –
COC1OC(OC)C2C(c3c(C)cc(C)cc3C)=NOC12 (centres undefined) | > 100 µM (inactive) | – | – | > 100 µM (inactive) | > 100 µM (inactive) | > 100 µM (inactive) | > 100 µM (inactive) | – | –
CCOC(=O)NC(=O)c1cn(C2OC(COC(=O)CCCCCCCCC(=O)OCC3OC(n4cc(C(=O)NC(=O)OCC)c(=O)[nH]c4=O)C(O)C3O)C(O)C2O)c(=O)[nH]c1=O (centres undefined) | > 100 µM (inactive) | > 100 µM (inactive) | > 100 µM (inactive) | > 100 µM (inactive) | > 100 µM (inactive) | > 100 µM (inactive) | > 100 µM (inactive) | – | –
COc1ccc(C(C#N)Cc2cc(OC)c(OC)c(OC)c2)cc1 (centres undefined) | 29.9 µM (inactive) | 17.4 µM (inactive) | 35.6 µM (inactive) | – | – | > 100 µM (inactive) | 7.16 µM (inactive) | – | –
CSc1ccc(Cc2cc(C(C)(C)C)cc(C(C)(C)C)c2O)cc1 | 16.8 µM (inactive) | 13 µM (inactive) | 14.9 µM (inactive) | 17.8 µM (inactive) | 14.6 µM (inactive) | 19.6 µM (inactive) | 13.7 µM (inactive) | – | –
N#Cc1c(-c2ccccc2)cc(-c2ccc(N)cc2)[nH]c1=O | > 100 µM (inactive) | > 100 µM (inactive) | > 100 µM (inactive) | – | > 100 µM (inactive) | > 100 µM (inactive) | > 100 µM (inactive) | – | –
CSc1nc(NC2OC(COC(C)=O)C(OC(C)=O)C(OC(C)=O)C2OC(C)=O)c(/N=C\C=N/c2c(NC3OC(COC(C)=O)C(OC(C)=O)C(OC(C)=O)C3OC(C)=O)nc(SC)n(C)c2=O)c(=O)n1C (centres undefined) | > 100 µM (inactive) | > 100 µM (inactive) | 51.8 µM (inactive) | 15.6 µM (inactive) | > 100 µM (inactive) | > 67.1 µM (inactive) | > 100 µM (inactive) | > 65.6 µM (inactive) | 26.1 µM (inactive)
N#CC(C(=O)/C(=N\Nc1nc(S)nn1N)C(C#N)c1ccc(Cl)cc1)c1ccc(Cl)cc1 (centres undefined) | > 100 µM (inactive) | > 100 µM (inactive) | – | > 100 µM (inactive) | > 100 µM (inactive) | > 100 µM (inactive) | > 100 µM (inactive) | – | –
COC(=O)/C(=N\Nc1nnc(C)n1N)C(C#N)c1ccc(Cl)cc1 (centres undefined) | > 100 µM (inactive) | 58.1 µM (inactive) | – | > 100 µM (inactive) | > 100 µM (inactive) | > 100 µM (inactive) | > 100 µM (inactive) | – | –
O=C(N/N=C/c1cc(Br)ccc1O)N/N=C/c1cc(Br)ccc1O | > 100 µM (inactive) | 1.18 µM (inactive) | 14.2 µM (inactive) | 2.19 µM (inactive) | 4.85 µM (inactive) | – | 0.791 µM (active) | – | –
O=C(O)CCc1nn2c(nc1=O)sc1ccc3ccccc3c12 | > 100 µM (inactive) | > 100 µM (inactive) | > 100 µM (inactive) | > 100 µM (inactive) | > 100 µM (inactive) | > 100 µM (inactive) | > 100 µM (inactive) | – | –
COc1ccc(/C=N\N2C(=O)Cc3ccccc32)cc1 | > 100 µM (inactive) | – | – | 27.4 µM (inactive) | > 100 µM (inactive) | > 100 µM (inactive) | > 100 µM (inactive) | – | –
NC(=S)N/N=C(\C(=O)Nc1ccc(Cl)c(Cl)c1)C1=NN(c2ccccc2)C(c2cccc([N+](=O)[O-])c2)CC1=O (centres undefined) | 18.4 µM (inactive) | 20.7 µM (inactive) | 12 µM (inactive) | 34.3 µM (inactive) | 20.7 µM (inactive) | 29.1 µM (inactive) | 11.7 µM (inactive) | – | –
O=C(/C=C/c1ccc(-c2ccccc2)cc1)c1ccccc1 | 24 µM (inactive) | 14.6 µM (inactive) | 25.2 µM (inactive) | 25.2 µM (inactive) | – | > 100 µM (inactive) | – | – | –
C=CCN(N=O)C(=O)N(CCCCC(NC(C)=O)C(=O)NCc1ccccc1)Cc1ccccc1 (centres undefined) | 35.2 µM (inactive) | 27.7 µM (inactive) | 32.5 µM (inactive) | 36.1 µM (inactive) | 18.9 µM (inactive) | 23 µM (inactive) | 41.1 µM (inactive) | – | –
CC1CC(c2ccc(Cl)cc2)=Nc2ccccc2S1 (centres undefined) | > 100 µM (inactive) | > 100 µM (inactive) | > 100 µM (inactive) | – | > 100 µM (inactive) | – | – | – | –
CCOC(=O)CCC(NC(=O)c1ccc(NC(OC)c2nc3cc(C(F)(F)F)ccc3nc2-c2ccccc2)cc1)C(=O)OCC (centres undefined) | 14.7 µM (inactive) | 12.7 µM (inactive) | 13.7 µM (inactive) | – | 13.6 µM (inactive) | 18.5 µM (inactive) | 7.36 µM (inactive) | – | –
Cc1cc2c(=O)cc(-c3ccncc3)oc2c(C(N)=O)c1C | > 100 µM (inactive) | – | – | > 100 µM (inactive) | > 100 µM (inactive) | > 100 µM (inactive) | > 100 µM (inactive) | – | –
